Experimental data as given in US20080167297A1, “Pyrimidine Derivatives for Use as Anticancer Agents” (ASTRAZENECA AB, priority 2005, published 2008).

tested on: murine fibroblasts (NIH3T3) over-expressing human IGF-1 receptor; test: Test (c): inhibition of IGF-stimulated cell proliferation (BrdU incorporation); type: cell-based; settings: inhibition of IGF-stimulated proliferation in NIH3T3 over-expressing human IGF-1 receptor
Method: The construction of murine fibroblasts (NIH3T3) over-expressing human IGF-1 receptor has been described by Lammers et al (EMBO J, 8, 1369-1375, 1989). These cells show a proliferative response to IGF-I which can be measured by BrdU incorporation into newly synthesised DNA. Compound potency was determined as causing inhibition of the IGF-stimulated proliferation in the following assay:
Compounds are initially dissolved in DMSO to 10 mM, followed by dilutions in DMEM+1% FCS+glutamine to give a range from […] in 1-0.00045% DMSO final concentration in assay well.
Exponentially growing NIH3T3/IGFR cells were harvested and seeded in complete growth medium into a flat-bottomed 96 well tissue culture grade plate (Costar 3525) at 1.2×10^4 cells per well in a volume of 100 μl.
Growth medium was carefully removed from each well using a multi-channel pipette. Wells were carefully rinsed three times with 200 μl with HBSS. 100 μl of starvation medium was added to each well and the plate was re-incubated for 24 hours.
50 μl of a 4× concentrate of test compound was added to appropriate wells. Cells were incubated for 30 minutes with compound alone before the addition of IGF. For cells treated with IGF, an appropriate volume (i.e. 25 μl) of starvation medium was added to make a final volume per well up to 200 μl followed by 25 μl of IGF-1 at 160 ng/ml (to give a final concentration of 20 ng/ml). […] The plate was re-incubated for 20 hours.
The incorporation of BrdU in the cells (after a 4 h incorporation period) was assessed using the BrdU Cell Proliferation Elisa according to the manufacturer's protocol.

SMILES	IC50 [µM]
Cc1cc(Nc2cc(C)[nH]n2)nc(N2CCC[C@H]2c2cc(-c3cccnc3C)no2)n1 [Example 3, S-2-[2-{3-(2-Methylpyrid-3-yl)isoxazol-5-yl}pyrrolidin-1-yl]-6-methyl-4-(5-methyl-1H-pyrazol-3-ylamino)pyrimidine]	0.006
CCOc1nccnc1-c1cc([C@@H]2CCCN2c2nc(C)cc(Nc3cc(C)[nH]n3)n2)on1 [Example 1, S-2-[2-{3-(3-Ethoxypyrazin-2-yl)isoxazol-5-yl}pyrrolidin-1-yl]-6-methyl-4-(5-methyl-1H-pyrazol-3-ylamino)pyrimidine]	0.04
Cc1cc(Nc2cc(C)[nH]n2)nc(N2CCC[C@H]2c2cc(-c3cccnc3C#N)no2)n1 [Example 7, S-2-[2-{3-(2-Cyanopyrid-3-yl)isoxazol-5-yl}pyrrolidin-1-yl]-6-methyl-4-(5-methyl-1H-pyrazol-3-ylamino)pyrimidine]	0.004
